# Source: US7322369B2, “Methods of detaching microorganisms from, or of inhibiting microbial attachment to, animal or poultry carcasses or seafood or parts thereof” (priority 2000, dated 2008)
# Structures can show the parent of a compound that is named as a salt.
# Tests used:
# [1] = test system: bacteria bound to collagen; test: Biosensor detachment of bacteria bound to collagen; assay type: binding; details: 0.5M arginine, phosphoric acid 0.1M, HCl 0.1M, citric acid 0.5M
# From the text: Use of Guanidine, creatine and arginine: Guanidine is a strong cytotoxic compound and can not be used in large quantities in food plants or slaughter operations. […] However, its use may be limited in the laboratory for analysis of food tissues. Therefore, a substitute for guanidine for detachment of pathogens from food carcasses was investigated. Guanidine is structurally related to creatine and arginine with a guanidyl moeity in their molecules. […] It has been shown that creatine hydrolyzes upon dissolution in water or buffer converting it to creatinine (methylglycocyamidine), a cyclic product and an end product of creatine metabolism. […] Arginine is an essential amino acid for children but not for adults. It is non-essential for adults because it can be derived from proteins in the diet. It is also inexpensive and can be obtained in bulk. Phosphoric acid (0.1M), HCl (0.1M) and citric acid (0.5M) had no effect in the detachment studies.
# [2] = test system: Salmonella typhimurium Sensor Surface; test: Biosensor inhibition of collagen binding to Salmonella typhimurium sensor surface; details: 12 trials
# E. coli O157:H7 surface = test: Biosensor inhibition of collagen binding to E. coli O157:H7 surface; details: 12 trials
# From the text: (§1) Biosensor Studies: A novel approach to study bacterial attachment to animal carcass was designed. The studies led to a development of a biosensor method to study binding of extracellular matrix components to the surface of immobilized bacteria. This novel approach utilized immobilized whole E. coli cells. This approach allowed the study of the binding of the lipopolysaccharides and other bacterial surface epitopes without altering their chemical structure. Conditions for immobilization and determination of the bacterial cell surface binding properties were initially assessed with anti-E. coli 0157:H7 antibody (Medina et al. (1997), Real-time analysis of antibody binding interactions with immobilized E. coli O157:H7, Biotechnology Techniques, Vol. 11 (3): 173-176). The bacterial surface was bound with an antibody produced against a heat-killed bacteria. […] The binding interactions of polysulfated polysaccharides such as heparan sulfate and iota, lambda and kappa carrageenans were determined with the extracellular matrix proteins (ECM) and the immobilized E. coli O157:H7 cells. […]
# E. coli and Salmonella = test: Biosensor kinetics of bacteria-collagen binding (E. coli and Salmonella pooled)
# From the text: as §1
# E. coli 0157 = test: Detachment of E. coli O157 in sandwich immunoassay (biosensor); assay type: binding; details: sequential .75M Arginine, then 0.25 NaCl + 0.05%Tween 80
# Salmonella = test: Detachment of Salmonella in sandwich immunoassay (biosensor); assay type: binding; details: sequential .75M Arginine, 6M Guanidine, 0.25 NaCl + 0.05% Tween 80
# bacteria = test: Bactericidal effect; assay type: cell-based; details: pH 2.5
# From the text: The present invention also includes a method of quantifying microorganisms (e.g., bacteria) on carcasses or parts thereof. To enhance detachment of microorganisms (e.g., bacteria) for sampling: Treatment of animal and poultry carcass or seafood with polysulfated polysaccharides or carboxymethyl cellulose followed by guanidine or arginine or phosphate buffer and NaCl/non-ionic surfactant may enhance detachment of microorganisms for sampling and analytical purposes. […] At pH 4.8, live bacteria may be recovered with guanidine-HCl. At pH 2.5, guanidine-HCl is bactericidal. Therefore, its use may be limited in the laboratory (FIG. 4). For “in situ” sampling in the slaughter plants, arginine, or phosphate buffer and TWEEN-80/NaCl may be used in place of guanidine (FIG. 5).
# Collagen is the major component (40%) of the connective tissues. Results from the scanning electron microscopy studies illustrated the abundance of collagen strands in the fascia and connective tissues (Medina et al. (1999), Scanning Electron Microscopy Studies on Attachment of Escherichia Coli O157:H7 to Bovine Tissues, Presented at 1999 IFT Annual Meeting, Chicago, Ill., July 24-28; Poster at Gordon Research Conference on Molecular Mechanisms of Microbial Adhesions (Aug. 1-6, 1999) and at the 18th Annual Meeting of the Philippine-American Academy of Science and Engineering, Jekyll Is., Ga., Aug. 13-15, 1999). […]
compound,measurement,setting,value
O=P(O)(O)O [Phosphoric acid],detachment of bacteria bound to collagen,[1],no effect
Cl [HCl],detachment of bacteria bound to collagen,[1],no effect
collagen,"affinity constant of collagen to Salmonella binding, mean",[2],2.75e+07 M⁻¹
same,"affinity constant of collagen to E. coli binding, mean",E. coli O157:H7 surface,3e+08 M⁻¹
same,dissociation constants of bacteria and collagen binding,E. coli and Salmonella,10^−8 to 10^−9 KDMole
same,"affinity constants of collagen to E. coli and Salmonella binding, range",E. coli and Salmonella; 12 trials (each),10^7 to 10^8 M^−1
"N=C(N)NCCC[C@H](N)C(=O)O [Arginine, arginine]",detachment of bacteria bound to collagen,[1],equally good or better than 1 M guanidine-HCl
same,Surface RU removed from the sensor surface,E. coli 0157; CFU 0,99 RU
same,Surface RU removed from the sensor surface,E. coli 0157; CFU 10E + 3,237 RU
same,Surface RU removed from the sensor surface,E. coli 0157; CFU 10E + 4,249 RU
same,Surface RU removed from the sensor surface,E. coli 0157; CFU 10E + 5,275 RU
same,Surface RU removed from the sensor surface,E. coli 0157; CFU 10E + 6,299 RU
same,Surface RU removed from the sensor surface,E. coli 0157; CFU 10E + 7,405 RU
same,Surface RU removed from the sensor surface,Salmonella; CFU 0,75 RU
same,Surface RU removed from the sensor surface,Salmonella; CFU 10E + 4,20 RU
same,Surface RU removed from the sensor surface,Salmonella; CFU 10E + 5,32 RU
same,Surface RU removed from the sensor surface,Salmonella; CFU 10E + 6,48 RU
same,Surface RU removed from the sensor surface,Salmonella; CFU 10E + 7,96 RU
O=C(O)CC(O)(CC(=O)O)C(=O)O [citric acid],detachment of bacteria bound to collagen,[1],no effect
"N=C(N)N [Guanidine, guanidine]",detachment of bacteria bound to collagen,[1],very effective detachment agent
same,Surface RU removed from the sensor surface,Salmonella; CFU 0,−137 RU
same,Surface RU removed from the sensor surface,Salmonella; CFU 10E + 4,−100 RU
same,Surface RU removed from the sensor surface,Salmonella; CFU 10E + 5,−54 RU
same,Surface RU removed from the sensor surface,Salmonella; CFU 10E + 6,−22 RU
same,Surface RU removed from the sensor surface,Salmonella; CFU 10E + 7,−32 RU
same,bactericidal effect,bacteria,bactericidal
CN(CC(=O)O)C(=N)N [creatine],detachment of bacteria bound to collagen,[1],ineffective
